The test addresses human NaV 1.8 channels stably expressed in HEK 293 cells (Homo sapiens (Human), UniProt Q9Y5Y9). Nature of the test: Nav1.8 Qube automated patch-clamp assay. The class given is cell-based. The settings on record: human NaV1.8 in HEK 293 cells, whole-cell voltage clamp, room temperature; read-out: IC50 values (nM) for Examples in the Nav1.8 Qube Assay. How it is done:
Compounds were tested on human NaV 1.8 and NaV1.5 channels stably expressed in human embryo kidney (HEK) 293 cells. Sodium current measurements on Qube® were conducted as follows: automated 384-well patch-clamp assays on the Qube® platform (Sophion Biosciences) were used to measure the inhibition of sodium flow through human NaV1.8 and NaV1.5 channels. Whole-cell voltage-clamp recordings were performed in QChips® (Sophion Biosciences) at room temperature. NaV1.8 current measurements on Qube® were obtained as follows: NaV1.8 currents were elicited with a 10 second 1 Hertz (Hz) pulse train from a holding potential of −90 millivolts (mV), delivered to the cells once per minute in the control condition (DMSO only) and after compound addition. The 1 hertz pulse train stimulation consisted of ten test pulses to 10 millivolt (mV) for 20 milliseconds (ms), each of which was followed by a 980 millisecond repolarization to −67 millivolts. At the end of the 10 second pulse train stimulation, a 5 second hyperpolarization step to −100 millivolt (mV) was used to recover NaV1.8 from fast inactivation. The peak currents elicited by the 1st and 10th test pulses were used to determine IC50 values for resting inhibition and inactivated state inhibition. NaV1.5 current measurements on Qube® were obtained as follows: NaV1.5 currents were elicited with a 20 second 3 Hertz pulse train in the control condition (DMSO only) and after compound addition. The pulse train consisted of sixty 20 millisecond test pulses to 0 millivolt from a holding potential of −80 millivolt (mV). The average peak currents elicited by the last 3 test pulses were used to determine IC50 values for NaV1.5 inhibition.
The following buffers were used for the Qube® recordings: External buffer for NaV1.8 Qube® recording: 150 NaCl, 2 CaCl2, 5 KCl, 1 MgCl2, 10 HEPES, 12 Dextrose; External buffer for Qube® NaV1.5 recording: 120 N-Methyl-D-Glucamine, 40 NaCl, 1 KCl, 2.7 CaCl2), 5 HEPES, 0.5 MgCl2; and Internal buffer for Qube® recording: 120 CsF, 30 CsCl, 10 EGTA, 5 HEPES, 5 NaF, 2 MgCl2.
For all Qube® experiments offline analysis was used to determine percent inhibition as a function of drug concentration. IC50 values were determined by fitting to the Hill equation.

The record followed here is patent US20240246932A1 (Merck Sharp & Dohme LLC, priority 2021, published 2024).

human NaV 1.8 channels stably expressed in HEK 293 cells, sequence (Q9Y5Y9 whole entry): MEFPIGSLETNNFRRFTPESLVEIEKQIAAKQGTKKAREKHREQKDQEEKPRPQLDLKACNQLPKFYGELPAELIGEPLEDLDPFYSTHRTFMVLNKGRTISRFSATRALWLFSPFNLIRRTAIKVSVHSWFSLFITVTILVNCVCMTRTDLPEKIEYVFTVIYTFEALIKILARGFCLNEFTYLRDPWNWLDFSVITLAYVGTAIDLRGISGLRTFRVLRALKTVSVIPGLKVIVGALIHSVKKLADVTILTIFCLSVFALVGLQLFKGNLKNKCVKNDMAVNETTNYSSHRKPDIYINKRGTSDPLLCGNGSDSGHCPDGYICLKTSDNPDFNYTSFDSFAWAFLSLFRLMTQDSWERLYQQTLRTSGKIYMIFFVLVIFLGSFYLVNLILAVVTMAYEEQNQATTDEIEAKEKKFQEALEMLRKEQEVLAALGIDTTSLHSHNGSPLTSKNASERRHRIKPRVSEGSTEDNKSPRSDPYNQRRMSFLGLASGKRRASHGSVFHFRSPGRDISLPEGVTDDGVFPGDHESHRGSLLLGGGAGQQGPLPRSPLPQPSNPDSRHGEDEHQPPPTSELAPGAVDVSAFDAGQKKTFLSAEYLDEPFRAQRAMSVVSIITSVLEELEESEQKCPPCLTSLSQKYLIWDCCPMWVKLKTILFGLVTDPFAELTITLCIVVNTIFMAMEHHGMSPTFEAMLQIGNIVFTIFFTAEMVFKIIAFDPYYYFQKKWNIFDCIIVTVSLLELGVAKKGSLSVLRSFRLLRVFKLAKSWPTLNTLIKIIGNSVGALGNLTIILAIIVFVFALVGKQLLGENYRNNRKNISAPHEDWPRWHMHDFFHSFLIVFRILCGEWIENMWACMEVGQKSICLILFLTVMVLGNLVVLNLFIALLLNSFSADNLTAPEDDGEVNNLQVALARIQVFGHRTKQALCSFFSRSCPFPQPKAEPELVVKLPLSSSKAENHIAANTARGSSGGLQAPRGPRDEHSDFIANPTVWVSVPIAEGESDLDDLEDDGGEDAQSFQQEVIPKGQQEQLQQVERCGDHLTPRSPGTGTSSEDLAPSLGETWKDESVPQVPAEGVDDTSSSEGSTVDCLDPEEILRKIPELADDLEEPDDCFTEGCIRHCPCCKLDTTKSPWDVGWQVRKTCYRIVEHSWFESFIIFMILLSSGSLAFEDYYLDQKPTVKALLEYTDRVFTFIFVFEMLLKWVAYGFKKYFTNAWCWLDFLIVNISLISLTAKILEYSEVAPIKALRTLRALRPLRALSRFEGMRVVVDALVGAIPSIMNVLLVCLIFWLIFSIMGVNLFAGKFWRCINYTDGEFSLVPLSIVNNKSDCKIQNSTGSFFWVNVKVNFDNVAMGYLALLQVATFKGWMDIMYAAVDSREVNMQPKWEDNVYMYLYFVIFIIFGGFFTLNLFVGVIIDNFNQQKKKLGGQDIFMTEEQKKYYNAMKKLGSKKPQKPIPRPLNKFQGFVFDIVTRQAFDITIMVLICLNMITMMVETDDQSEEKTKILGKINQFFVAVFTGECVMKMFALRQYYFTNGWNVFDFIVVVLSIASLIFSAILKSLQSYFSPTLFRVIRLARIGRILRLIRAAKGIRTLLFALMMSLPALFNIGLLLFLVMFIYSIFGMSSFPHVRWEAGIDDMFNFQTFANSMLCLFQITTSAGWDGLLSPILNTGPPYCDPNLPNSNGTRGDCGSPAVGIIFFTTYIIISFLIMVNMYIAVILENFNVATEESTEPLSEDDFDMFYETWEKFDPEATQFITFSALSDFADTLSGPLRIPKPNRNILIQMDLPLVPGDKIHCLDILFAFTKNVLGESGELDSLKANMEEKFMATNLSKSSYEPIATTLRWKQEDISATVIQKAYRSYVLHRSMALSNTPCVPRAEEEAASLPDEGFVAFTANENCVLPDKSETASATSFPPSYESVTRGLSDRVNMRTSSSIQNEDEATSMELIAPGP

Turning to `C[C@@H]1C(=O)NCCN1C(=O)NC(c1cnc(C(F)(F)F)nc1)c1ccc(F)c(Cl)c1` (single isomer, unassigned) [Example 69A, (2R)-N-((R or S)-(3-chloro-4-fluorophenyl)(2-(trifluoromethyl)pyrimidin-5-yl)methyl)-2-methyl-3-oxopiperazine-1-carboxamide], the IC50 was 136 nM.

On to `C[C@@H]1C(=O)NCCN1C(=O)NC(c1ccc(OC(F)(F)F)nc1)c1ccc(F)c(Cl)c1F` (single isomer, unassigned) [Example 4A, (2R)-N-((R or S)-(3-chloro-2,4-difluorophenyl)(6-(trifluoromethoxy)pyridin-3-yl)methyl)-2-methyl-3-oxopiperazine-1-carboxamide], for which the IC50 stood at 3.9 nM.

For the compound `O=C1CN(C(=O)NC(c2ccc(OCC(F)(F)F)nc2)c2ccc(F)c(Cl)c2)CCN1` (single isomer, unassigned) [Example 2A, N-((R or S)-(3-chloro-4-fluorophenyl)(6-(2,2,2-trifluoro-ethoxy)pyridin-3-yl)methyl)-3-oxopiperazine-1-carboxamide], the IC50 was determined as 8.98 nM.

Turning to `C[C@@H]1C(=O)NCCN1C(=O)NC(c1ccc(C(C)(F)F)nc1)c1ccc(F)c(Cl)c1F` (single isomer, unassigned) [Example 75A], the IC50 was 89.5 nM.

For `O=C1CN(C(=O)NC(c2ccc(F)c(Cl)c2)c2cccc(C(F)(F)F)n2)[C@@H](CF)CN1` (single isomer, unassigned) [Example 47A, (2R)-N-((R or S)-(3-chloro-4-fluoro-phenyl)(6-(trifluoro-methyl)pyridin-2-yl)methyl)-2-(fluoromethyl)-5-oxopiperazine-1-carboxamide], the IC50 was 2310 nM.

For `C[C@@H]1C(=O)NCCN1C(=O)NC(c1cnc(C(F)(F)F)c(Cl)c1)c1ccc(F)c(C(F)(F)F)n1` (single isomer, unassigned) [Example 82B], the IC50 worked out at 3.76 nM.

As to `C[C@@H]1C(=O)NCCN1C(=O)NC(c1ccc(OCC(F)(F)F)nc1)c1ccc(F)c(C(F)(F)F)n1` (single isomer, unassigned) [Example 50B, (2R)-N-((S or R)-(5-fluoro-6-(trifluoro-methyl)pyridin-2-yl)(6-(2,2,2-trifluoro-ethoxy)pyridin-3-yl)methyl)-2-methyl-3-oxopiperazine-1-carboxamide], the IC50 was 8.55 nM.

`C[C@@H]1C(=O)NCCN1C(=O)NC(c1ccc(C(F)(F)F)nc1)c1ccc(F)c(Cl)c1F` (single isomer, unassigned) [Example 15B]: the IC50 turned out to be 59.9 nM.

Consider `C[C@@H]1C(=O)NCCN1C(=O)NC(c1ccc(F)c(Cl)c1)c1ccn(C(F)F)n1` (single isomer, unassigned) [Example 66A], for which the IC50 amounted to 125 nM.

Regarding `C[C@@H]1C(=O)NCCN1C(=O)NC(c1cnc(C(F)(F)F)c(Cl)c1)c1ccc(Cl)c(C#N)c1` (single isomer, unassigned) [Example 23B, (2R)-N-((S or R)-(4-chloro-3-cyano-phenyl)(5-chloro-6-(trifluoromethyl)pyridin-3-yl)methyl)-2-methyl-3-oxopiperazine-1-carboxamide], the IC50 was determined as 6.06 nM.

Regarding `C[C@H]1CN(C(=O)NC(c2ccc(F)c(Cl)c2)c2cccc(C(F)(F)F)n2)CC(=O)N1` (single isomer, unassigned) [Example 46A, (3S)-N-((R or S)-(3-chloro-4-fluoro-phenyl)(6-(trifluoro-methyl)pyridin-2-yl)methyl)-3-methyl-5-oxopiperazine-1-carboxamide], the IC50 came to 924 nM.

`C[C@@H]1C(=O)NCCN1C(=O)NC(c1ccc(OCC(F)(F)F)cc1)c1ccc(F)c(C(F)(F)F)n1` (single isomer, unassigned) [Example 57A, (2R)-N-((R or S)-(5-fluoro-6-(trifluoro-methyl)pyridin-2-yl)(4-(2,2,2-trifluoro-ethoxy)phenyl)methyl)-2-methyl-3-oxopiperazine-1-carboxamide]: the IC50 was 6.79 nM.

Consider `O=C1CN(C(=O)NC(c2ccc(OCC(F)(F)F)nc2)c2ccc(F)c(Cl)c2F)CCN1` (single isomer, unassigned) [Example 8B, N-((S or R)-(3-chloro-2,4-difluorophenyl)(6-(2,2,2-trifluoroethoxy)pyridin-3-yl)methyl)-3-oxopiperazine-1-carboxamide], for which the IC50 was determined as 136 nM.

As to `C[C@@H]1C(=O)NCCN1C(=O)NC(c1ccc(C#N)c(Cl)c1)c1cnc(C(F)(F)F)c(Cl)c1` (single isomer, unassigned) [Example 24A, (2R)-N-((R or S)-(3-chloro-4-cyano-phenyl)(5-chloro-6-(trifluoromethyl)pyridin-3-yl)methyl)-2-methyl-3-oxopiperazine-1-carboxamide], the IC50 came out at 22.3 nM.

For the compound `C[C@@H]1C(=O)NCCN1C(=O)NC(c1cnc(C(F)(F)F)nc1)c1ccc(F)c(Cl)c1F` (single isomer, unassigned) [Example 30A, (2R)-N-((R or S)-(3-chloro-2,4-difluoro-phenyl)(2-(trifluoro-methyl)pyrimidin-5-yl)methyl)-2-methyl-3-oxopiperazine-1-carboxamide], the IC50 turned out to be 506 nM.

As to `O=C1NCCN(C(=O)NC(c2ccc(C(F)(F)F)nc2)c2ccc(F)c(Cl)c2F)C1C1CC1` (single isomer, unassigned) [Example 38B, N—((R or S)-(3-chloro-2,4-difluorophenyl)(6-(trifluoromethyl)pyridin-3-yl)methyl)-(S)-2-cyclopropyl-3-oxopiperazine-1-carboxamide], the IC50 came out at 2.22 nM.

Turning to `C[C@@H]1C(=O)NCCN1C(=O)NC(c1ccc(OC(F)(F)F)c(Cl)c1)c1cnc(C(F)(F)F)c(Cl)c1` (single isomer, unassigned) [Example 22A, (2R)-N-((R or S)-(3-chloro-4-(trifluoro-methoxy)phenyl)(5-chloro-6-(trifluoro-methyl)pyridin-3-yl)methyl)-2-methyl-3-oxopiperazine-1-carboxamide], the IC50 was determined as 0.31 nM.

As for `C[C@@H]1C(=O)NCCN1C(=O)NC(c1ccc(OC2CC2)c(F)c1)c1cnc(C(F)(F)F)c(Cl)c1` (single isomer, unassigned) [Example 25A, (2R)-N-((R or S)-(5-chloro-6-(trifluoro-methyl)pyridin-3-yl)(4-cyclopropoxy-3-fluorophenyl)methyl)-2-methyl-3-oxopiperazine-1-carboxamide], the IC50 is 3.51 nM.

`C[C@@H]1C(=O)NCCN1C(=O)NC(c1ccc(F)c(Cl)c1)c1cnn(CC(F)(F)F)c1` (single isomer, unassigned) [Example 67A]: the IC50 was 890 nM.

With `O=C1CN(C(=O)NC(c2ccc(F)c(Cl)c2)c2cccc(C(F)(F)F)n2)CCN1` (single isomer, unassigned) [Example 42, N—((R or S)-(3-chloro-4-fluorophenyl)(6-(trifluoromethyl)pyridin-2-yl)methyl)-3-oxopiperazine-1-carboxamide], the IC50 came out at 32.2 nM.

As for `C[C@@H]1C(=O)NCCN1C(=O)NC(c1cnc(C(F)(F)F)c(F)c1)c1ccc(F)c(Cl)c1F` (single isomer, unassigned) [Example 34, (2R)—N—((R or S)-(3-chloro-2,4-difluorophenyl)(5-fluoro-6-(trifluoromethyl)pyridin-3-yl)methyl)-2-methyl-3-oxopiperazine-1-carboxamide], the IC50 worked out at 2.12 nM.
